Test results: US8772275B2, “Mediators of hedgehog signaling pathways, compositions and uses related thereto” (Curis, Inc., priority 2001, dated 2014)

System: Hedgehog pathway
Experiment: Gli-Luc reporter assay in human embryonic palatal mesenchyme cells, OCT-SHH stimulated
Format: cell-based
Conditions: human-based Gli-Luc assay, OCT-SHH 1 μg/ml
Procedure: (§1) Compounds to be tested are dissolved in DMSO to a concentration of 10 mM, and stored at −20° C. To activate the Hedgehog pathway in the assay cells, an octylated (lipid-modified) form of the N-terminal fragment of the Sonic Hedgehog protein (OCT-SHH) is used. This N-terminal SHH fragment is produced bacterially. See, for example, Taylor F R, et al., Biochemistry 2001, 40, 4359-71.
(§2) Compounds may be tested in the “Gli-Luc” assay below, using the cell line 10T1/2(s12), wherein the cells contain a Hedgehog-responsive reporter construct utilizing Luciferase as the reporter gene. In this way, Hedgehog pathway signaling activity can be measured via the Gli-Luc response.
(§3) 10t1/2(s12) cells are plated in a 96-well micro-titer plate (MTP) at 20,000 cells/well in full medium [DMEM with […]]. Then plates are placed in the incubator for incubation overnight (O/N), at 37° C. and 5% CO2. After 24 h, the medium is replaced with Luciferase-assay medium (DMEM with 0.5% FBS). Compounds are thawed and diluted in assay medium at 3:1000 (about 300-fold) resulting in a starting concentration of about 0.0003 μM to 30 μM.
(§4) Subsequently, 150 μl each sample is added to the first wells (in triplicate). The MTP samples are then diluted at 3-fold dilutions to a total of seven wells, ultimately resulting in a regiment of seven dilutions in triplicate, for each compound. Next, the protein ligand OCT-SHH is diluted in Luciferase-assay medium and added to each well at a final concentration of […] Plates are then returned to the incubator for further incubation O/N, at 37° C. and 5% CO2. After about 24 h, plates are removed from the incubator and the medium is aspirated/discarded. Wells are washed once with assay buffer [PBS+1 mM Mg^2+ and 1 mM Ca^2+]. Then 50 μl of assay buffer is added to each well. The Luciferase assay reagent is prepared as described by the vendor (LucLite kit from Packard), and 50 μl is added to each well. Plates are incubated at room temperature (RT) for about 30 minutes after which the signals are read, again at RT, on a Topcount (Packard).
Similar assays were performed using human cell lines (specifically, human embryonic palatal mesenchyme cells, modified with the Gli-Luc construct as described above) in a growth medium of MEM/Sodium Pyruvate w/10% MS, and an assay medium of MEM/Sodium Pyruvate w/0.5% FBS. OCT-SHH was added to reach a final concentration of 1 μg/ml.

Structure (SMILES) | IC50 [nM]
O=C(Nc1ccc(Cl)c(-c2nc3ccccc3[nH]2)c1)c1cccnc1 [B] | < 50
O=C(Nc1ccc(Cl)c(-c2nc3ccccc3[nH]2)c1)c1ccc2c(c1)OCCO2 [C] | < 500
COc1cc(OC)cc(C(=O)Nc2ccc(Cl)c(-c3nc4ccccc4[nH]3)c2)c1 [Compound A] | < 50
O=C(Nc1ccc(Cl)c(-c2nc3cc(C(F)(F)F)ccc3[nH]2)c1)c1ccc2c(c1)OCCO2 [W] | < 10
Cc1ccc2nc(-c3cc(NC(=O)c4ccc5c(c4)OCCO5)ccc3Cl)[nH]c2c1C [X] | < 50
COc1ccc(C(=O)Nc2ccc(Cl)c(-c3nc4cc(C)c(C)cc4[nH]3)c2)cc1Cl [Y] | < 50
COc1cc(OC)cc(C(=O)Nc2ccc(Cl)c(-c3nc4c(C)cccc4[nH]3)c2)c1 [Z] | < 50

System: Hedgehog pathway
Experiment: Gli-Luc reporter assay in 10T1/2(s12) cells, OCT-SHH stimulated
Format: cell-based
Conditions: compounds E-V: not from the human-based assay; Gli-Luc assay in 10T1/2(s12) cells
Procedure: as §1, §2, §3, §4

Structure (SMILES) | IC50 [nM]
Cc1ccccc1OCC(=O)Nc1ccc(Cl)c(-c2nc3ccccc3[nH]2)c1 [E] | < 5000
Cc1ccc(C(=O)Nc2ccc(Cl)c(-c3nc4ccccc4[nH]3)c2)cc1[N+](=O)[O-] [J] | < 5000
COc1cc(C(=O)Nc2ccc(Cl)c(-c3nc4ccccc4[nH]3)c2)cc(OC)c1OC [L] | < 5000

System: hedgehog signaling pathway
Experiment: Colon cancer cells co-cultured with 10T(S12) reporter cells, luciferase activity
Format: cell-based
Conditions: 20,000 colon cancer cells mixed with 10,000 10T(S12) cells, 72 hrs incubation
Procedure: 20,000 colon cancer cells were mixed with 10,000 10T(S12) cells (described above), and the mixture was added to each well in a 96-well plate. A subject compound or control vehicle was added to the culture on the next day. After 72 hrs of incubation, the cells were lysed for measuring the luciferase activity. […] FIG. 35 depicts the comparative inhibition of hedgehog-induced activation in S12 cells for the antibodies 1E6 and 5E1 and compound A, and the comparative inhibition of endogenous hedgehog activity in colon cancer cells for these compositions.

Structure (SMILES) | inhibition of luciferase activity compared to vehicle
COc1cc(OC)cc(C(=O)Nc2ccc(Cl)c(-c3nc4ccccc4[nH]3)c2)c1 [Compound A] | able to inhibit the lucferase activity
